The source of these data is US7470684B2, “Spiropiperidine derivatives as NK3 antagonists” (Hoffmann-La Roche Inc., priority 2007, dated 2008).

This assay has as its target T1, human NK3 receptor (Homo sapiens, UniProt P29371).
T1 construct: expressed in transfected cells; host or cells: HEK293 cells, transiently transfected; membranes
T1 sequence (P29371 1-465): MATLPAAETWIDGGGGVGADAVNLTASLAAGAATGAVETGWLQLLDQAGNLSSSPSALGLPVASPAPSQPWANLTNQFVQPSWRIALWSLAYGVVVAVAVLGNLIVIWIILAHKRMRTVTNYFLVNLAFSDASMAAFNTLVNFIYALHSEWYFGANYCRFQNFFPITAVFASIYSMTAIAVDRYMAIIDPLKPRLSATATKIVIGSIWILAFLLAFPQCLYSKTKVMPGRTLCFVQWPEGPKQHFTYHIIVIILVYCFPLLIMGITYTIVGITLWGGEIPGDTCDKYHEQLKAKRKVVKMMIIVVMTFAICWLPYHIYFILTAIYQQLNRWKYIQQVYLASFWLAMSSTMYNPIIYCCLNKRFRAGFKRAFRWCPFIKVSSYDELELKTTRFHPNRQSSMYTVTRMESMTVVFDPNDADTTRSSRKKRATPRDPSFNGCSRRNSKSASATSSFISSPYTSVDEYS
As to the kind of experiment: [3H]SR142801 competition binding assay. Put shortly: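 Membranes from HEK293 cells transiently expressing human NK3 receptor incubated 75 min at RT with [3H]SR142801 at its KD and compound (0.0003-10 μM) in pH 7.4 Tris/MnCl2 buffer. Filtration and scintillation counting, nonspecific binding with 10 μM SB222200. IC50 from Hill fit, Ki by Cheng-Prusoff, duplicates.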

[1] abbreviates: hNK3 Ki, [3H]SR142801 displacement, membranes of HEK293 cells transiently expressing recombinant human NK3 receptor.

The structures appear in SMILES notation. Counter-ions that a name gives are not always drawn. Like-named read-outs stand apart in the source and are kept apart here.

As to `CN(Cc1cccc(C(F)(F)F)c1)C(=O)C(CCN1CCC2(CC1)OC(=O)N(C)c1ccc(F)cc12)c1ccc(Cl)c(Cl)c1` (centres unmarked) [Example 104, 2-(3,4-dichlorophenyl)-4-(6-fluoro-1-methyl-2-oxo-1,2-dihydro-1′H-spiro[3,1-benzoxazine-4,4′-piperidin]-1′-yl)-N-methyl-N-[3-(trifluoromethyl)benzyl]butanamide], the Ki under setting [1] came out at 1.6 nM. Same read-out and setting: for `Cc1ccc(CN(C)C(=O)C(CCCN2CCC3(CC2)OC(=O)Nc2ccc(F)cc23)c2ccc(Cl)c(Cl)c2)cc1` (centres unmarked) [Example 138, 2-(3,4-dichlorophenyl)-5-(6-fluoro-2-oxo-1,2-dihydro-1′H-spiro[3,1-benzoxazine-4,4′-piperidin]-1′-yl)-N-methyl-N-(4-methylbenzyl)pentanamide] the value was 95.4 nM.

Take `CN(Cc1ccc(-c2ccncc2)cc1)C(=O)C(CCN1CCC2(CC1)OC(=O)N(C)c1ccc(F)cc12)c1ccc(Cl)c(Cl)c1` (centres unmarked) [Example 97, 2-(3,4-dichlorophenyl)-4-(6-fluoro-1-methyl-2-oxo-1,2-dihydro-1′H-spiro[3,1-benzoxazine-4,4′-piperidin]-1′-yl)-N-methyl-N-(4-pyridin-4-ylbenzyl)butanamide]: the inhibition constant Ki was 9.4 nM. As to `CN(Cc1cccc(Cl)c1)C(=O)C(CCN1CCC2(CC1)OC(=O)Nc1ccc(F)cc12)c1ccc(Cl)c(Cl)c1` (centres unmarked) [Example 19, N-(3-chlorobenzyl)-2-(3,4-dichlorophenyl)-4-(6-fluoro-2-oxo-1,2-dihydro-1′H-spiro[3,1-benzoxazine-4,4′-piperidin]-1′-yl)-N-methylbutanamide], the Ki under setting [1] stood at 5.2 nM. On to `CN(Cc1ccc(F)cc1)C(=O)C(CCN1CCC2(CC1)OC(=O)Nc1ccc(F)cc12)c1ccc(F)cc1` (centres unmarked) [Example 59, N-(4-fluorobenzyl)-4-(6-fluoro-2-oxo-1,2-dihydro-1′H-spiro[3,1-benzoxazine-4,4′-piperidin]-1′-yl)-2-(4-fluorophenyl)-N-methylbutanamide], for which the inhibitory constant (Ki) under setting [1] stood at 48.9 nM. For the compound `CN(Cc1ccccc1)C(=O)C(CCN1CCC2(CC1)OC(=O)Nc1ccc(F)cc12)c1ccc(Cl)c(Cl)c1` (centres unmarked) [Example 1, N-benzyl-2-(3,4-dichlorophenyl)-4-(6-fluoro-2-oxo-1,2-dihydro-1′H-spiro[3,1-benzoxazine-4,4′-piperidin]-1′-yl)-N-methylbutanamide hydrochloride], under setting [1], the inhibition constant Ki was determined as 11.2 nM. Consider `CCN(Cc1ccccc1)C(=O)C(CCN1CCC2(CC1)OC(=O)Nc1ccc(F)cc12)c1ccc(Cl)c(Cl)c1` (centres unmarked) [Example 6, N-benzyl-2-(3,4-dichlorophenyl)-N-ethyl-4-(6-fluoro-2-oxo-1,2-dihydro-1′H-spiro[3,1-benzoxazine-4,4′-piperidin]-1′-yl)butanamide], for which, under setting [1], the inhibitory constant (Ki) is 62.8 nM.

`Cc1ccsc1CNC(=O)C(CCCN1CCC2(CC1)OC(=O)Nc1ccc(F)cc12)c1ccc(Cl)c(Cl)c1` (centres unmarked) [Example 116, 2-(3,4-dichlorophenyl)-5-(6-fluoro-2-oxo-1,2-dihydro-1′H-spiro[3,1-benzoxazine-4,4′-piperidin]-1′-yl)-N-[(3-methyl-2-thienyl)methyl]pentanamide]: where the note is “[3H]SR142801 displacement, membranes of HEK293 cells transiently expressing recombinant human NK3 receptor, read-out: hNK3 Ki”, the Ki turned out to be 66.8 nM. As for `CCN(Cc1ccccc1)C(=O)C(CCN1CCC2(CC1)OC(=O)N(C)c1ccc(F)cc12)c1ccc(Cl)c(Cl)c1` (centres unmarked) [Example 29, N-benzyl-2-(3,4-dichlorophenyl)-N-ethyl-4-(6-fluoro-1-methyl-2-oxo-1,2-dihydro-1′H-spiro[3,1-benzoxazine-4,4′-piperidin]-1′-yl)-butanamide], the inhibitory constant (Ki) under setting [1] was determined as 6.7 nM. As for `Cc1ccc(CN(C)C(=O)C(CCN2CCC3(CC2)OC(=O)Nc2ccc(F)cc23)c2ccc(F)cc2)cc1` (centres unmarked) [Example 56, 4-(6-fluoro-2-oxo-1,2-dihydro-1′H-spiro[3,1-benzoxazine-4,4′-piperidin]-1′-yl)-2-(4-fluorophenyl)-N-methyl-N-(4-methylbenzyl)butanamide], the inhibition constant (Ki) under setting [1] came out at 66.4 nM. Turning to `CN1C(=O)OC2(CCN(CCC(C(=O)NCc3ccc(C#N)cc3)c3ccc(Cl)c(Cl)c3)CC2)c2cc(F)ccc21` (centres unmarked) [Example 111, N-(4-cyanobenzyl)-2-(3,4-dichlorophenyl)-4-(6-fluoro-1-methyl-2-oxo-1,2-dihydro-1′H-spiro[3,1-benzoxazine-4,4′-piperidin]-1′-yl)butanamide], under setting [1], the inhibitory constant (Ki) worked out at 3.1 nM. The same measure, in the same setting: for `CN1C(=O)OC2(CCN(CCC(C(=O)NCc3cccc(C(F)(F)F)c3)c3ccc(Cl)c(Cl)c3)CC2)c2cc(F)ccc21` (centres unmarked) [Example 108, 2-(3,4-dichlorophenyl)-4-(6-fluoro-1-methyl-2-oxo-1,2-dihydro-1′H-spiro[3,1-benzoxazine-4,4′-piperidin]-1′-yl)-N-[3-(trifluoromethyl)benzyl]butanamide] the value was 3 nM; for `CN(Cc1ccccc1Cl)C(=O)C(CCN1CCC2(CC1)OC(=O)Nc1ccc(F)cc12)c1ccc(F)cc1` (centres unmarked) [Example 27, N-(2-chlorobenzyl)-4-(6-fluoro-2-oxo-1,2-dihydro-1′H-spiro[3,1-benzoxazine-4,4′-piperidin]-1′-yl)-2-(4-fluorophenyl)-N-methylbutanamide], 38.5 nM; for `CN(Cc1ccccc1Cl)C(=O)C(CCN1CCC2(CC1)OC(=O)Nc1ccc(F)cc12)c1ccc(Cl)c(Cl)c1` (centres unmarked) [Example 17, N-(2-chlorobenzyl)-2-(3,4-dichlorophenyl)-4-(6-fluoro-2-oxo-1,2-dihydro-1′H-spiro[3,1-benzoxazine-4,4′-piperidin]-1′-yl)-N-methylbutanamide], 6.7 nM. The compound `CCCCN(C)C(=O)C(CCN1CCC2(CC1)OC(=O)Nc1ccc(F)cc12)c1ccc(Cl)c(Cl)c1` (centres unmarked) [Example 14, N-butyl-2-(3,4-dichlorophenyl)-4-(6-fluoro-2-oxo-1,2-dihydro-1′H-spiro[3,1-benzoxazine-4,4′-piperidin]-1′-yl)-N-methylbutanamide] yielded a Ki of 90.8 nM. For `CN(Cc1ccc(F)cc1)C(=O)C(CCN1CCC2(CC1)OC(=O)Nc1ccc(F)cc12)c1ccc(Cl)c(Cl)c1` (centres unmarked) [Example 80, 2-(3,4-dichlorophenyl)-N-(4-fluorobenzyl)-4-(6-fluoro-2-oxo-1,2-dihydro-1′H-spiro[3,1-benzoxazine-4,4′-piperidin]-1′-yl)-N-methylbutanamide], the inhibition constant (Ki) under setting [1] turned out to be 4.4 nM.

As for `O=C1Nc2ccc(F)cc2C2(CCN(CCC(C(=O)NCc3ccc(F)cc3)c3ccc(Cl)c(Cl)c3)CC2)O1` (centres unmarked) [Example 81, 2-(3,4-dichlorophenyl)-N-(4-fluorobenzyl)-4-(6-fluoro-2-oxo-1,2-dihydro-1′H-spiro[3,1-benzoxazine-4,4′-piperidin]-1′-yl)-butanamide], the inhibition constant (Ki) under setting [1] worked out at 11.6 nM.

What is called Ki is a measure of affinity in units of concentration, obtained from inhibition or displacement.
